Calls of active or inactive are those of the source. The rule behind the calls is not given here.
Legend:
L1210 [1] = assay: Antiproliferative activity of compound was assessed using the murine L1210 leukemia cell line; assay type: functional, cell-based; conditions: Mus musculus
L1210 [2] = assay: Percent perturbations evaluated at 10 uM induced on L1210 cells in the >G2+M (8N) phase of cell cycle; inactive; assay type: functional, cell-based; conditions: Mus musculus
HT-29 = assay: Cytotoxicity of compound was evaluated on the HT-29 cell line; assay type: functional, cell-based; conditions: Homo sapiens
L1210 [3] = assay: Percent perturbations evaluated at 10 uM induced on L1210 cells in the G2+M phase of cell cycle; assay type: functional, Mus musculus
L1210 [4] = assay: Percent perturbations evaluated at 10 uM induced on L1210 cells in the >G2+M (8N) phase of cell cycle; assay type: functional, Mus musculus

SMILES	IC50 (L1210 [1]) [µM]	Perturbations (L1210 [2])	IC50 (HT-29) [nM]	Perturbations (L1210 [3]) [%]	Perturbations (L1210 [4]) [%]
c1ccc2c(c1)ncn1c3ccccc3nc21	> 100	–	–	–	–
N#Cc1[nH]c2ccccc2c2nc3ccccc3c1-2	> 100	–	–	–	–
Cn1c2ccccc2c2c(C#N)nc3ccccc3c21	58.8	–	–	–	–

The next compounds have a lower IC50 (L1210 [1]) than those just listed; values first:

IC50 (L1210 [1]) [µM]	SMILES	Perturbations (L1210 [2])	IC50 (HT-29) [nM]	Perturbations (L1210 [3]) [%]	Perturbations (L1210 [4]) [%]
5.4	N#Cc1nc2ccccc2c2nc3ccccc3n12	inactive	5200	61	–
3.1	CN(C)CCn1c2ccccc2c2c(C#N)nc3ccccc3c21	–	680	50	21

Source: ChEMBL document CHEMBL1133049, “Expeditious synthesis and cytotoxic activity of new cyanoindolo[3,2-c]quinolines and benzimidazo[1,2-c]quinazolines” (Bioorg Med Chem Lett, 2000)
